Results taken from PMC6572064, “Discovery of 2-(1-(3-(4-Chloroxyphenyl)-3-oxo- propyl)pyrrolidine-3-yl)-1H-benzo[d]imidazole-4-carboxamide: A Potent Poly(ADP-ribose) Polymerase (PARP) Inhibitor for Treatment of Cancer” (Molecules, 2019).
Read-outs that look alike come from different tables or passages of the source.

Tests used:
[1] = test system: CAPAN-1 (a BRCA-2-mutated pancreatic cancer cell line); experiment: Cell proliferation assay, three-day, CellTiter-Glo, CAPAN-1; type: cell-based; settings: for inhibition at 0.00508 µM: CAPAN-1, 0.00508 uM; for inhibition at 0.0152 µM: CAPAN-1, 0.0152 uM; for inhibition at 0.0457 µM: CAPAN-1, 0.0457 uM; for inhibition at […]: CAPAN-1, 0.14 uM; for inhibition at 0.41 µM: CAPAN-1, 0.41 uM; for inhibition at 1.23 µM: CAPAN-1, 1.23 uM; for inhibition at 3.7 µM: CAPAN-1, 3.70 uM; for inhibition at 11.11 µM: CAPAN-1, Conc. 11.11 uM; for inhibition at 33.33 µM: CAPAN-1, Conc. 33.33 uM; for inhibition at 100 µM: CAPAN-1, Conc. 100.00 uM
Procedure: (§1) A three-day assay was conducted. A cell suspension was prepared. Cell density was counted by an automated cell counter and then diluted to the required density, according to seeding density. 50 μL cells were seeded into 384-well plate in growth medium according to the plate map. The cells were incubated at 37 °C, 5% CO2 overnight.
(§2) 200× compound solution in DMSO was prepared and diluted with growth medium to 26× final concentration by addition of 26 μL 200× compounds to 174 μL growth medium. Then 2 μL of diluted compound solution was added to cells and the cell was incubated at 37 °C, 5% CO2 for 72 h.
(§3) The assay plate was equilibrated to room temperature prior to measurement. 15 μL of CellTiter-Glo Reagent was added into each well and the contents were mixed for 2 min on an orbital shaker to induce cell lysis. The cells were incubated at room temperature for 60 min to stabilize luminescent signal. Luminescence was recorded on the Envision system.

[2] = test system: MDA-MB-436 (a BRCA-1-mutated breast cancer cell line); experiment: Cell proliferation assay, three-day, CellTiter-Glo, MDA-MB-436; type: cell-based; settings: for inhibition at 0.00508 µM: MDA-MB-436, MDA-MB-436, Conc. 0.00508 uM; for inhibition at 0.0152 µM: MDA-MB-436, MDA-MB-436, Conc. 0.0152 uM; for inhibition at 0.0457 µM: MDA-MB-436, MDA-MB-436, Conc. 0.0457 uM; for inhibition at 0.41 µM: MDA-MB-436, MDA-MB-436, Conc. 0.41 uM; for inhibition at 1.23 µM: MDA-MB-436, MDA-MB-436, Conc. 1.23 uM; for inhibition at 3.7 µM: MDA-MB-436, MDA-MB-436, Conc. 3.70 uM
Procedure: as §1, §2, §3

PARP-1 = biological target: T1, PARP-1 (Homo sapiens, UniProt P09874); experiment: PARP-1 inhibition assay (PARP-1 Chemiluminescent Assay Kit, BPS Bioscience); type: biochemical; settings: 10 nM compound
T1 construct: purchased BPS Bioscience 80569
Procedure: (§4) The PARP-1 and PARP-2 inhibition assays were performed in outsourcing, by a CRO company, Shanghai Medicilon Inc. (Shanghai, China). […] Briefly, PARP-1 or PARP-2 biotinylated substrate was incubated with compounds or solvent control at varying concentrations and an assay buffer containing the PARP-1 or PARP-2 enzyme.

PARP-2 = biological target: T2, PARP-2 (Homo sapiens, UniProt Q9UGN5); experiment: PARP-2 inhibition assay (PARP-2 Chemiluminescent Assay Kit, BPS Bioscience); type: biochemical; settings: 10 nM compound
T2 construct: purchased BPS Bioscience 80552
Procedure: as §4

[3] = CAPAN-1, curve fit of Inh %, plate 1
[4] = Homo sapiens, replicate 1, read-out: Inh % 1
[5] = Homo sapiens, replicate 2, read-out: Inh % 2

T2 sequence (Q9UGN5 whole entry): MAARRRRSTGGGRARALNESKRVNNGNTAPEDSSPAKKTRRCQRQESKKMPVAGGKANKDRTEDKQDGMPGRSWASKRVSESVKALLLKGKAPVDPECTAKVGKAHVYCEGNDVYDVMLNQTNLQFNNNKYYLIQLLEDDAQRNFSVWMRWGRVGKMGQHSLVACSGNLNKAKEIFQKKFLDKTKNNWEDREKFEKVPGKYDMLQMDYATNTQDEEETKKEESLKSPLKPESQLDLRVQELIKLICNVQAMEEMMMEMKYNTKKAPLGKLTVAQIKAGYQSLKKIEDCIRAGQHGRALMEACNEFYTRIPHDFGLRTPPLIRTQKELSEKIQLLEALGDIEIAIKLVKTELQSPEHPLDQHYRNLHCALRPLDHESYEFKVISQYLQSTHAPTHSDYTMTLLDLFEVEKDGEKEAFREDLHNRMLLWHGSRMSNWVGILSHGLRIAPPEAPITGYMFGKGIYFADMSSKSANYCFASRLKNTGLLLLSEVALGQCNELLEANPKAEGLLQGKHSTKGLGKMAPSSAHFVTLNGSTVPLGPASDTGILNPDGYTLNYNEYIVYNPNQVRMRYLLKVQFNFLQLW
T1 sequence (P09874 whole entry): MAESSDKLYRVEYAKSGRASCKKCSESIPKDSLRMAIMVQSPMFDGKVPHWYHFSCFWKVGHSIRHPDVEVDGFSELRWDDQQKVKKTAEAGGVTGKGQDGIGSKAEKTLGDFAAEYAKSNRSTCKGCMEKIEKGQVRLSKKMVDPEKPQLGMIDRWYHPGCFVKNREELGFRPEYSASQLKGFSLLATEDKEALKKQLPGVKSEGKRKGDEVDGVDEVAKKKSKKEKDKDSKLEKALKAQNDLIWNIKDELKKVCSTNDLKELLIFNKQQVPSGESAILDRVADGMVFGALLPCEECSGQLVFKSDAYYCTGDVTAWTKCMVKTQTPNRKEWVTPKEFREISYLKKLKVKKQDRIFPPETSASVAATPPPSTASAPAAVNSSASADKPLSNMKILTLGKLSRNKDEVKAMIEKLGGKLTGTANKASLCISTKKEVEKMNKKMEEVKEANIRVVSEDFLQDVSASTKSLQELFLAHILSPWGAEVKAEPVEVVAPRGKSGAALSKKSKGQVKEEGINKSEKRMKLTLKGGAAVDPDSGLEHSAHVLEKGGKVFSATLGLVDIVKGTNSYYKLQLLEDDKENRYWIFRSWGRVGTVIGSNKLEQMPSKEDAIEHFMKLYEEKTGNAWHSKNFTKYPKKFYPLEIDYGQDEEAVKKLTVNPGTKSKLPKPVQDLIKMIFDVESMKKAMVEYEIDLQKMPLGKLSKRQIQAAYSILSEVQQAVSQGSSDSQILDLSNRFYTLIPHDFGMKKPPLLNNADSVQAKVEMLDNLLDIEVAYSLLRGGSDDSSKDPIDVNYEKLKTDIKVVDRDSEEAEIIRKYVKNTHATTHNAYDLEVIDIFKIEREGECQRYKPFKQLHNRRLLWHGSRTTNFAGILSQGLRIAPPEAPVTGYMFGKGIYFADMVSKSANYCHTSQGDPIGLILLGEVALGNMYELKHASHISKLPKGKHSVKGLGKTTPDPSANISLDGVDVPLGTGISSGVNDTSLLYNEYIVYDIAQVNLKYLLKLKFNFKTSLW

NC(=O)c1cccc2[nH]c(C3CCN(CC(=O)Nc4ccccc4)C3)nc12 (centres unmarked) [Compound 5ca, 2-(1-(2-Oxo-2-(phenylamino)ethyl)pyrrolidin-3-yl)-1H-benzo[d]imidazole-4-carboxamide]
Bottom [1, 3]: 11.48
HillSlope [1, 3]: 1.045
Top [1, 3]: = 100.0
LogIC50 ([1]; CAPAN-1, curve fit, plate 1): 2.027 Log (uM)
IC50 ([1]; Homo sapiens, CAPAN-1, 72 h, CellTiter-Glo, read-out: CAPAN-1 IC50): > 100 µM
inhibition at 0.00508 µM [1, 4]: -2.6%
inhibition at 0.00508 µM [1, 5]: 19.1%
inhibition at 0.0152 µM [1, 4]: -2.3%
inhibition at 0.0152 µM [1, 5]: 9.8%
inhibition at 0.0457 µM [1, 4]: 6.6%
inhibition at 0.0457 µM [1, 5]: 22%
inhibition at […] [1, 4]: 7.4%
inhibition at […] [1, 5]: 15.6%
inhibition at 0.41 µM [1, 4]: 22.5%
inhibition at 0.41 µM [1, 5]: 10.9%
inhibition at 1.23 µM [1, 4]: 21.1%
inhibition at 1.23 µM [1, 5]: 9.6%
inhibition at 3.7 µM [1, 4]: 8.2%
inhibition at 3.7 µM [1, 5]: 19.9%
inhibition at 11.11 µM [1, 4]: 22.1%
inhibition at 11.11 µM [1, 5]: 20.4%
inhibition at 33.33 µM [1, 4]: 29.2%
inhibition at 33.33 µM [1, 5]: 28.3%
inhibition at 100 µM [1, 4]: 59.9%
inhibition at 100 µM [1, 5]: 51.1%
inhibition at 0.00508 µM [2, 4]: -8.8%
inhibition at 0.00508 µM [2, 5]: -5.8%
inhibition at 0.0152 µM [2, 4]: -0.8%
inhibition at 0.0152 µM [2, 5]: -6.8%
inhibition at 0.0457 µM [2, 4]: -1.6%
inhibition at 0.0457 µM [2, 5]: -6.8%
inhibition at 0.41 µM [2, 4]: 2.8%
inhibition at 0.41 µM [2, 5]: -7.6%
inhibition at 1.23 µM [2, 4]: 5.5%
inhibition at 1.23 µM [2, 5]: -1.8%
inhibition at 3.7 µM [2, 4]: 10.4%
inhibition at 3.7 µM [2, 5]: 0.639%
inhibition at 11.11 µM ([2]; Homo sapiens, MDA-MB-436, MDA-MB-436, Conc. 11.11 uM, duplicate wells (Inh % 1, Inh % 2), read-out: Inh %): 15.1%
inhibition at 33.33 µM ([2]; Homo sapiens, MDA-MB-436, MDA-MB-436, Conc. 33.33 uM, duplicate wells (Inh % 1, Inh % 2), read-out: Inh %): 68.9%
inhibition at 100 µM ([2]; Homo sapiens, MDA-MB-436, MDA-MB-436, Conc. 100.00 uM, duplicate wells (Inh % 1, Inh % 2), read-out: Inh %): 93.3%
IC50 ([2]; Homo sapiens, MDA-MB-436, 72 h, CellTiter-Glo, read-out: MDA-MB-436 IC50): 22.9 µM
IC50 ([2]; Homo sapiens, MDA-MB-436, 72 h, supplement Summary sheet, read-out: IC50): 22.9 µM
IC50 ([2]; Homo sapiens, MDA-MB-436, curve fit list, no unit in the cell, concentration in uM, read-out: IC50): 22.9 µM
Inh % ([2]; MDA-MB-436, Conc. 11.11 uM, duplicate wells (Inh % 1, Inh % 2)): 9.5%
Inh % ([2]; MDA-MB-436, Conc. 33.33 uM, duplicate wells (Inh % 1, Inh % 2)): 56.4%
Inh % ([2]; MDA-MB-436, Conc. 100.00 uM, duplicate wells (Inh % 1, Inh % 2)): 81.3%
Bottom ([2]; MDA-MB-436, curve fit parameter (Inh %)): -3.40
Top ([2]; MDA-MB-436, curve fit parameter (Inh %), '= 100.0' is a constrained value): 92.23
LogIC50 ([2]; MDA-MB-436, curve fit, concentration axis Log (uM)): 1.36
inhibition at 0.01 µM (PARP-1; supplement sheet, read-out: 10 nM inhibition% PAPR-1): 17.6%
inhibition at 0.01 µM (PARP-1; read-out: PARP-1 Inhibition % (10 nM)): 17.6%
inhibition at 0.01 µM (PARP-2; supplement sheet, read-out: 10 nM inhibition% PAPR-2): 34.5%
inhibition at 0.01 µM (PARP-2; read-out: PARP-2 Inhibition % (10 nM)): 34.5%
